Experimental data reported in US20030017618A1, “Chemical sensor and method of detecting chemical” (priority 2000, published 2003).

Columns and labels:
[1] = target: T1, bovine derivation odorant binding protein (OBP) (Bos taurus, UniProt P07435); details: grade in words (high / moderate affinity); cited from earlier work
T1 sequence (P07435 1-159): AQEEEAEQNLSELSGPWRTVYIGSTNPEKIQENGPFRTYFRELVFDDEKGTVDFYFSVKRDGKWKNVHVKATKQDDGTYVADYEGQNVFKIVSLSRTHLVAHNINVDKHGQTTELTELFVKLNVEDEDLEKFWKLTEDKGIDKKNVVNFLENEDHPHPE

OBP 6C = target: T2, OBP 6C (Bos taurus, UniProt P07435); test: quantity of immobilization of OBP 6C to NTA sensor chip (surface plasmon resonance, BiacoreX) in presence of odorant; format: binding, bovine; details: for affinity for the OBP 6C: OBP solution 200 nM, 25° C.
T2 construct: successively elongated for finally synthesizing the whole length of the OBP gene; made in house; host or cells: E. coli BL21 (pET 28a(+), pETOBP-His)
T2 sequence (P07435 1-159): T1 sequence (P07435 1-159)
Experimental: In preparation of the OBP 6C solution employed in the present Inventive Example, the OBP 6C prepared in the aforementioned manner was dissolved in an EB (eluent buffer) and diluted so that the concentration of the solution reached 200 nM.
In preparation of the odorant solutions employed in the present Inventive Example, on the other hand, the six types of odorants, i.e., cineol, linalyl acetate, pinene, geraniol, citronellal and oxidized citronellal were dissolved in ethanol solutions (EtOH) respectively, for preparing odorant solutions of 10^−5 M in concentration as to the respective odorants.
100 μl of the OBP solution having the concentration of 200 nM prepared in the aforementioned manner and 0.1 μl of each odorant solution having the concentration of 10^−5 M were mixed with each other, for preparing six types of sample solutions employed for measurement. In this case, the final concentration of the odorant in each sample solution is […].
An ethanol solution of the OBP 6C (final concentration of EtOH: 0.1%) containing no odorant was also prepared as a comparative sample (blank).
Each sample solution prepared in the aforementioned manner was left to stand at 25° C. for one hour.
Then, an NTA sensor chip (by Biacore) was set in BiacoreX (by Biacore) and thereafter the temperature was set to 25° C. for performing priming with an elution buffer shown in Table 4 described later. Thereafter stabilization of the base was confirmed and the elution buffer was continuously fed at a flow velocity of 20 μl/min. until the temperature reached the set value.
Further, a reproduced solution (30 μl) shown in Table 4 described later was added at a flow velocity of 10 μl/min. and excessive bivalent cation was removed. Then, an Ni solution (30 μl) shown in Table 4 described later was added at a flow velocity of 10 μl/min. for chelating Ni to NTA and immobilizing Ni.
Then, one of the sample solutions (10 μl) prepared in the above was added at a flow velocity of 1 μl/min. for 10 minutes, for immobilizing the OBP 6C onto the sensor chip. After completion of immobilization, the quantity of immobilization of the OBP 6C was measured. Thereafter the reproduced solution shown in Table 4 was employed for washing and removing the OBP 6C immobilized onto the sensor chip.
Operations similar to the above were performed also as to the other sample solutions, for measuring the quantities of immobilization of the OBP 6C as to all of the six types of sample solutions and the comparative (blank) sample solution.
In this case, the quantity of immobilization of the comparative sample (blank) containing no odorant was regarded as 100% for calculating relative values of the quantities of immobilization of the OBP 6C in the respective samples with reference thereto.
In the present Inventive Example, an OBP 6C solution was first prepared along with preparation of DMO solutions. In this case, the OBP 6C solution was prepared by a method similar to the preparation method in Inventive Example 1. In preparation of the DMO solutions, DMO was dissolved in ethanol (EtOH), for preparing solutions of 10^−3, 10^−4, 10^−5 and 10^−6 M in concentration respectively.
100 μl of the OBP 6C solution having the concentration of […] and 0.5 μl of each of the DMO solutions of 10^−3, 10^−4, 10^−5 and 10^−6 M, thereby preparing sample solutions having DMO final concentration values of 5×10^−6, 5×10^−7, 5×10^−8 and 5×10^−9 M respectively. Also in this case, an ethanol solution (final concentration of EtOH: 0.1%) of the OBP 6C containing no DMO was prepared as a comparative sample, similarly to the case of Inventive Example 1.
The respective sample solutions prepared in the aforementioned manner were left to stand at 25° C. for one hour.
After preparing the sample solutions in the aforementioned manner, the quantities of immobilization of the OBP 6C were measured as to the respective sample solutions by a method similar to that in Inventive Example 1.

[2] = Inventive Example 1, FIG. 12, odorant final concentration 10^−8 M, comparison between odorants
[3] = Inventive Example 1, FIG. 12, odorant final concentration 10^−8 M, blank regarded as 100%, comparison between odorants

Row | Compound | affinity for the OBP [1] | also measured
1 | CC(C)CC(=O)OCc1ccccc1 [benzyl isovalerate] | high affinity | –
2 | C/C=C(C)\C=C\C=C(C)C [neo-alloocimen] | moderate affinity | –
3 | COC(C=C(C)CCC=C(C)C)OC [citral dimethyl acetal] | moderate affinity | –
4 | CCCCCCCCOC(=O)C(C)C [octyl isobutyrate] | moderate affinity | –
5 | CC(C)=CCCC1=CCC(C=O)CC1 (centres unmarked) [myrmac aldehyde] | moderate affinity | –
6 | CC1C(C)(C)C2=C(C(=O)CCC2)C1(C)C (centres unmarked) [cashmeran] | moderate affinity | –
7 | dimethyl octane | moderate affinity | –
8 | oxidized citronellal | – | affinity for the OBP 6C (OBP 6C; [2]): reduced in oxidized citronellal as compared with non-oxidized citronellal; quantity of immobilization of the OBP 6C (OBP 6C; [3]): increased in oxidized citronellal as compared with the non-oxidized case
9 | CC1(C)C2CC=C(CCC=O)C1C2 (centres unmarked) [pinoacetaldehyde] | moderate affinity | –
10 | CC1=C(/C=C/C(C)=C/C=C/C(C)=C/C=O)C(C)(C)CCC1 [retinal] | moderate affinity | –
11 | CCOC(=O)c1ccccc1C(=O)OCC [diethylphthalate] | moderate affinity | –
12 | carbon | moderate affinity | –
13 | CC(C)=CCCC(C)CC=O (centres unmarked) [citronellal] | moderate affinity | affinity for the OBP 6C (OBP 6C; [2]): higher affinity for the OBP 6C as compared with geraniol; quantity of immobilization of the OBP 6C (OBP 6C; [3]): reduced in citronellal as compared with geraniol
14 | C=CCc1ccc(O)c(OC)c1 [eugenol] | moderate affinity | –
15 | C=CC(C)(O)CCC=C(C)C (centres unmarked) [linalool] | moderate affinity | –
16 | CCCCCCCCCCC=O [undecanal] | high affinity | –
17 | CCCCC/C(C=O)=C/c1ccccc1 [amyl cinnamic aldehyde] | high affinity | –
18 | CCCCCCCCOC(=O)CC(C)C [octyl isovalerate] | moderate affinity | –
19 | CC1COCc2cc3c(cc21)C(C)(C)C(C)C3(C)C (centres unmarked) [galaxolide] | moderate affinity | –
20 | CCCCCCCCCC=O [decanal] | moderate affinity | –

Row | Compound | affinity for the OBP [1] | also measured
21 | CCCCCCCCCCCCCC=O [tetradecanal] | high affinity | –
22 | CCCCCC1C(=O)CCC1CC(=O)OC (centres unmarked) [methyl dihydrojasmonate] | moderate affinity | –
23 | CC(C)CCCC(C)(C)O [dimethol] | moderate affinity | –
24 | CC(C)=CCCC(C)=CC#N [citralva] | high affinity | –
25 | heptenal | moderate affinity | –
26 | O=C(c1ccccc1)c1ccccc1 [benzophenone] | high affinity | –
27 | musk 89 | high affinity | –
28 | CCCCCCC=O [heptanal] | moderate affinity | –
29 | CC(C)=CCC/C(C)=C/CCC=O [geranyl acetaldehyde] | moderate affinity | –
30 | CC(=O)OC1CCC(C(C)(C)C)CC1 (centres unmarked) [vertenex] | moderate affinity | –
31 | CCCCCCC(C=O)=Cc1ccccc1 [hexyl cinnamic aldehyde] | high affinity | –
32 | CC1=C(/C=C/C(C)=C/C=C/C(C)=C/CO)C(C)(C)CCC1 [retinol] | moderate affinity | –
33 | coniferane | moderate affinity | –
34 | dimethyl octhene | moderate affinity | –
35 | pinylisobutyl aldehyde | moderate affinity | –
36 | CC(=O)OCCC(C)CCC=C(C)C (centres unmarked) [citronellyl acetate] | moderate affinity | –
37 | hexyl pyridine | high affinity | –
38 | O=C(OCc1ccccc1)c1ccccc1 [benzyl benzoate] | high affinity | –
39 | OCCc1ccccc1 [phenetyl alcohol] | moderate affinity | –
40 | CCCCCCOC(=O)C(C)CC (centres unmarked) [hexyl methylbutyrate] | moderate affinity | –

Row | Compound | affinity for the OBP [1] | also measured
41 | ambrettolide | moderate affinity | –
42 | jessemal | moderate affinity | –
43 | CCCCC[C@H]1C(=O)CC[C@H]1CC(=O)OC [epimethyl dihydrojasmonate] | moderate affinity | –
44 | CC(C)CCCC(C)CCO (centres unmarked) | high affinity | DMO concentration that can be determined from the quantity of immobilization of the OBP 6C (quantitative limit) (OBP 6C; Inventive Example 2, FIG. 13): at least 10^−8 M; DMO concentration range with constant correlation between concentration and quantity of immobilization of the OBP 6C (OBP 6C; Inventive Example 2, FIG. 13, DMO 5×10^−6 to 5×10^−9 M): at least 5×10^−8 M; quantity of immobilization of the OBP 6C (OBP 6C; Inventive Example 2, FIG. 13, DMO concentration smaller than 10^−8 M, versus absence of the odorant): equalized with the quantity of immobilization
45 | C=CC(C)CCCC(C)(C)O (centres unmarked) [dihydromyrcenol] | high affinity | –
46 | agrumea | moderate affinity | –
47 | CC/C(=C\CC1CC=C(C)C1(C)C)CO (centres unmarked) [bacdanol] | moderate affinity | –
48 | CC(C)C/C=C(/C=O)c1ccccc1 [cocal] | moderate affinity | –
49 | CC(C)CC(=O)OC1CC2CCC1(C)C2(C)C (centres unmarked) [bornyl isovalerate] | moderate affinity | –
50 | CC(C)[C@@H]1CC[C@@H](C)CC1=O [menthone] | moderate affinity | –
51 | CC/C=C\CC1=C(C)CCC1=O [cisjasmone] | moderate affinity | –
52 | CC(C)=CCCC(C)CCO (centres unmarked) [citronellol] | high affinity | –
53 | CC(=O)OC/C=C(\C)CCC=C(C)C [geranyl acetate] | moderate affinity | –
54 | CCCCCCCCC=O [nonanal] | moderate affinity | –
55 | CC(C)=CCC/C(C)=C\CO [nerol] | moderate affinity | –
56 | ionone | moderate affinity | –
57 | CCCCCC1COCCC1OC(C)=O (centres unmarked) [jasmal] | moderate affinity | –
58 | CC(C)=CCC/C(C)=C/CO [geraniol] | moderate affinity | –
59 | Cc1c[nH]c2ccccc12 [skatole] | high affinity | –
